# Results reported in article PMC6851892 (Clinical Pharmacology in Drug Development, 2019).
# What was measured:
# [1] = type: in vivo, human (healthy subjects); settings: human, plasma, oral
# [2] = cited from earlier work
# [3] = system: CYP enzymes or transporters; settings: in vitro; cited from earlier work
# [4] = cited from earlier work; remark: listed apart in the source
# [5] = primary circulating metabolites of ertugliflozin; cited from earlier work
# [6] = cited from earlier work; remark: listed apart in the source
# [7] = oral radioactive ertugliflozin dose
Tmax [1],half-life [1],Compound,"Unmetabolized drug recovered in urine, % of the administered dose [2]",AUC dose proportionality ([2]; dose range of 0.5 to 300 mg),"Median time to maximum plasma concentration (Tmax) ([2]; fed state, oral)","Excretion of radioactivity in feces, % of the dose [2, 7]","Excretion of radioactivity in urine, % of the dose [2, 7]",Inhibition or induction of CYP enzymes or transporters [3],Biopharmaceutical Classification System class [4],Pharmacological activity [5],Excreted in feces [6],Excreted mostly unmetabolized in urine [6],Renal clearance [6],AUC dose dependence ([6]; healthy subjects)
~1 h,11.2 to 13.8 h,CCOc1ccc(Cc2cc([C@]34OC[C@](CO)(O3)[C@@H](O)[C@H](O)[C@H]4O)ccc2Cl)cc1 [Ertugliflozin],1.5%,increases in a dose‐proportional manner,~2 h,40.9%,50.2%,do not inhibit or induce CYP enzymes or transporters,class 1,–,–,–,–,–
–,–,"CCOc1ccc(Cc2cc([C@]34OC[C@](CO)(O3)[C@@H](O)[C@H](O[C@@H]3O[C@H](C(=O)O)[C@@H](O)[C@H](O)[C@H]3O)[C@H]4O)ccc2Cl)cc1 [M5c, 3‐O‐β glucuronide]",–,–,–,–,–,–,–,pharmacologically inactive,–,–,–,–
2.2 to 4 h,11.2 to 12.5 h,N[C@@H](CC(=O)N1CCn2c(nnc2C(F)(F)F)C1)Cc1cc(F)c(F)cc1F [Sitagliptin],–,–,–,–,–,–,class 1,–,13%,87%,approximately 388 mL/min,increases in an approximately dose‐dependent manner
